Biological target: T1, PFV IN complexed with various DNA sequences (Human spumaretrovirus, UniProt P14350)
T1 construct: The full-length wt IN^PFV, the three single mutants of the catalytic triad; His; made in house; host or cells: E. coli BL21-CodonPlus (DE3)-RIPL
Test: DTG binding to IN complexed with various DNA sequences, fluorescence anisotropy procedure
Design: species or system prototype foamy virus (PFV)
Conditions: normalized by DNA#1, [IN]=[DNA]=1.8 μM, [DTG]=0.6 μM, 10 mM Mg2+
Experimental: The binary complex concentration was measured as explained in Fig. 2E. […] This percentage was then plotted against the concentration of the binary complex (F). […] All graphs show representative data of three (panels A and B) or two (panels C–F) independent experiments.
Fluorescence excitation and emission spectra of INSTIs were recorded on a Eclipse (Varian) spectrofluorimeter equipped with two polarizers for anisotropy measurements and a thermostated cell holder, using 80 µl solutions placed in micro cells (Hellma). Drug, IN and DNA concentrations, excitation/emission slit settings as well as the photomultiplier tube (PMT) voltage are specified in figure legends. The intensity value was corrected from the inner filter effect. The steady-state fluorescence anisotropy was calculated using: r = (IVV–G x IVH)/(IVV + 2GxIVH) where IVV and IVH correspond to vertical and horizontal components, respectively, when the sample is excited with vertically polarized light. G represents the correction factor for the difference in the monochromator transmission between // and ⊥ polarized components: G = IHV/IHH. All experiments were performed at 25 °C in buffer A: 20 mM Tris pH 7.2, 50 mM NaCl, 1 mM DTT and 10% (v/v) DMSO.

## C[C@@H]1CCO[C@H]2Cn3cc(C(=O)NCc4ccc(F)cc4F)c(=O)c(O)c3C(=O)N12 [DTG, dolutegravir]
DNA#1 (cognate)
  DTG-binding (%) Fluorescence anisotropy procedure: 100%
DNA#3
  DTG-binding (%) Fluorescence anisotropy procedure: 96 ± 3%
DNA#7
  DTG-binding (%) Fluorescence anisotropy procedure: 42 ± 6%
DNA#8
  DTG-binding (%) Fluorescence anisotropy procedure: 8 ± 2%
DNA#9 (random sequence)
  DTG-binding (%) Fluorescence anisotropy procedure: 15 ± 3%
DNA#11
  DTG-binding (%) Fluorescence anisotropy procedure: 29 ± 3%
DNA#12
  DTG-binding (%) Fluorescence anisotropy procedure: 77 ± 4%
DNA#13 (processed DNA product)
  DTG-binding (%) Fluorescence anisotropy procedure: 79 ± 5%
